Reference: publication PMC8945229, “Development and Biological Characterization of a Novel Selective TrkA Agonist with Neuroprotective Properties against Amyloid Toxicity” (Biomedicines, 2022)

Experiments:
[1] = system: Akt; test: Akt phosphorylation in PC12 cells (Western blot); assay type: cell-based; design: unit not given here; conditions: 500 nM, 30′
Description: For immunoprecipitation experiments PC12 or HEK293T, cells were used when at 70–80% confluent. Cells were starved of serum for 4 h and subsequently treated with 100 ng/mL NGF or 500 nM of compound ENT-A013 for 30′. Cells were then lysed in Pierce™ IP Lysis Buffer (87788, Thermo Fischer Scientific, Waltham, MA, USA) containing proteases (539138, Calbiochem, Darmstadt, Germany) and phosphatase inhibitors (524629, Calbiochem, Darmstadt, Germany). Lysates were then immunoprecipitated overnight at 4 °C with TrkA antibody (1:100, 06-574, Sigma-Aldrich, St. Louis, MO, USA) (Table S1) or p75^NTR antibody (1:100, ab6172, Abcam plc., Cambridge, UK) followed by 4 h incubation with protein G-plus agarose beads (sc-2002, Santa Cruz Biotechnology, Inc., Dallas, TX, USA). Beads were then collected, washed 3X with lysis buffer, resuspended in SDS loading buffer and subjected to Western blot against phosphorylated Tyrosine (1:1000, BAM1676, R&D Systems, Inc., Minneapolis, MN, USA) or Traf6 antibody (1:2000, ab33915, Abcam, plc., Cambridge, UK). […]

[2] = system: Primary Dorsal Root Ganglia (DRG) neurons; test: Neurite outgrowth assay in primary DRG neurons without NGF; assay type: cell-based, mouse; conditions: 500 nM every 48 h, 5 DIV, NGF-neutralizing antibody
Description: Primary Dorsal Root Ganglia (DRG) neurons were isolated from P0-P1 mouse pups (C57BL/6J, The Jackson Laboratory, Bar Harbor, ME, USA) as described previously and cultured with Neurobasal medium (21103049 Gibco, Grand Island, NY, USA) containing 2% B27 (17504044, Gibco, Grand Island, NY, USA), 100 ng/mL NGF (N-100, Alomone Labs, Jerusalem, Israel), 1X GlutaMax (35050061, Gibco, Grand Island, NY, USA), 10 mM HEPES (15630080, Gibco, Grand Island, NY, USA), 1% Penicillin/Streptomycin (15070063, Gibco, Grand Island, NY, USA) and 10 μM 5-Fluoro-2′-deoxyuridine (343333, Calbiochem, Darmstadt, Germany). For TUNEL assay, cells were cultured for 14 days in vitro and then the medium was deprived of NGF before adding ENT-A013 (500 nM, every 24 h) along with NGF-neutralizing antibody (N8773, 1:500, Sigma-Aldrich, St. Louis, MO, USA). Cells were then incubated for 48 h before being fixed with 4% PFA and labelled with TUNEL (11684795910, F. Hoffmann–La Roche Ltd., Basel, Switzerland) following the manufacturer’s protocol. Subsequently, cells were immunostained against Tuj1 (1:2000, 801201, Biolegend, Inc., San Diego, CA, USA) and anti-mouse Cy3 (1:1000, Invitrogen, A10521, Waltham, MA, USA) and imaged with a Leica SP8 confocal microscope. […] Cells were then imaged by confocal microscopy and neurite length was measured using Fiji software (NIH, Bethesda, Maryland, USA).

[3] = Metabolic stability in human liver microsomes; assay type: in vitro ADME; conditions: 1 μM, 0.5 mg/mL microsomes, 1 mM NADPH, t = 60 min
Description: Human liver microsome (pooled) concentration was set at 0.5 mg/mL and 1 mM NADPH served as a cofactor for oxidative (CYP-mediated) metabolic stability profiling. ENT-A013 was tested at 1 μM. Incubation conditions ensured linear metabolite formation with respect to reaction time and protein concentration. Incubations took place in triplicates at 37 °C in the presence of negative and positive controls (low vs. rapid clearance). Each reaction was terminated after the specified incubation period (60 min) and plates were read on Lionheart FX (BioTek, Winooski, VT, USA). Residual (%) of time zero (ENT-A013 depletion) was determined.

[4] = system: Akt and Erk1/2; test: Akt and Erk1/2 phosphorylation in NIH-3T3 cells transfected with TrkB or TrkC; assay type: cell-based; conditions: 500 nM, 30′
Description: cells were stably transfected with TrkB and treated with ENT-A013 (500nM) or BDNF (500ng/ml) for 30’ and then subjected to Western Blot against phosphorylated TrkB and […]
either TrkB or Akt by ENT-A013. (C) NIH-3T3 cells were stably transfected with TrkC and (1 picture or pasted object on this page, not shown here) […]
(§1) treated with ENT-A013 (500nM) or Neurotrophin-3 (100ng/ml) for 30’ and then subjected to Western Blot against phosphorylated TrkC, Akt and Erk1/2. […]
(§2) phosphorylated any of those. (D) CellTox assay was performed in NIH-3T3-TrkB cells that were starved from serum and treated with ENT-A013 or BDNF for 24hrs. Quantification (E) […]
(§3) negative control (Serum Free).
(§4) Supplementary Figure S3: Primary DRG neurons were cultured in the presence of ENT-A013 (500nM, supplemented every 48hrs) and a neutralizing antibody against NGF for 5 days and then neurite length was measured by immunostaining against Tuj1 .
(§5) Supplementary Figure S4: Primary hippocampal neurons at 14-16 DIV were treated with oligomeric Aβ and in the presence of ENT-A013 (500nM, supplemented every 24hrs) for 48hrs and then were subjected to Western Blot against phosphorylated JNK. A representative blot […]

[5] = system: NIH-3T3-TrkB cells; test: CellTox assay in serum-starved NIH-3T3-TrkB cells; assay type: cell-based; conditions: 24hrs
Description: as §1, §2, §3, §4, §5

## CC12CCC(O)CC1=CCC1C2CCC2(C)C1CCC21CC1C=CBr [ENT-A013, (2′R,3S,17S)-2′-(2-Bromovinyl)-5-Androstene-17,1′-Cyclopropan-3-ol]
[1]
  Akt phosphorylation: 3.8 ± 1.15
[2]
  axonal / neurite length (in words): this difference was not significant
[3]
  residual of time zero: 93%
[4]; NIH-3T3 TrkB cells
  Akt phosphorylation (in words): no significant difference in the phosphorylation
[4]; NIH-3T3 TrkC cells
  Akt and Erk1/2 phosphorylation (in words): failed to
[5]
  cell death vs negative control (Serum Free) (in words): no significant difference
